Assays:
Assay type in all cases: in vivo
Set-up in all cases: scale not given here
[1] = tested on: Setaria viridis (L.) Beauv.; experiment: Herbicidal effect by upland field soil treatment; conditions: active ingredient 1000 g/ha, examined at 21st day from treatment
Text: (§1) An upland field soil was filled in a plastic pot of 80 cm^2. Seeds of Echinochloa crus-galli (L.) Beauv. var. crusgalli and Setaria viridis (L.) Beauv. were sowed, followed by covering with the same soil. […] Then, breeding was made in a greenhouse, and the herbicidal effect of each wettable powder was examined at the 21st day from the treatment in accordance with the standard shown in Table 21.

[2] = tested on: Echinochloa crus-galli (L.) Beauv. var. crusgalli; experiment: Herbicidal effect by upland field soil treatment; conditions: active ingredient 1000 g/ha, examined at 21st day from treatment
Text: as §1

[3] = tested on: Echinochloa crus-galli (L.) Beauv. var. crus-galli; experiment: Herbicidal effect by upland foliage treatment; conditions: active ingredient 1000 g/ha, examined at 14th day from treatment
Procedure: (§2) A sand was filled in a plastic pot of 80 cm^2. Seeds of Echinochloa crus-galli (L.) Beauv. var. crus-galli and Setaria viridis (L.) Beauv. were sowed. Breeding was made in a greenhouse for 2 weeks. Wettable powders produced in accordance with the Formulation 1 were diluted with water and sprayed on the whole foliage of plants from above the plants using a small sprayer in an amount of 1,000 liters per 1 hectare so that the amount of each active ingredient became 1,000 g per 1 hectare. Then, breeding was made in the greenhouse, and the herbicidal effect of each wettable powder was examined at the 14th day from the treatment in accordance with the standard shown in Table 21.

[4] = tested on: Setaria viridis (L.) Beauv.; experiment: Herbicidal effect by upland foliage treatment; conditions: active ingredient 1000 g/ha, examined at 14th day from treatment
Procedure: as §2

[5] = tested on: Monochoria vaginalis (Murm. f.) Presl var. plantaginea (Roxb.) Solms-Laub.; experiment: Herbicidal effect by paddy field soil treatment; conditions: wettable powder, active ingredient 1000 g/ha, examined at the 21st day from the treatment
Outline: (§3)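 Seeds sown in puddled paddy soil under 3 cm of water; the next day wettable powders diluted in water were dropped onto the water surface at 1,000 g active ingredient/ha. Plants grown in a greenhouse, with herbicidal effect scored on day 21 against a rating standard.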

[6] = tested on: Echinochloa oryzicola Vasing; experiment: Herbicidal effect by paddy field soil treatment; conditions: wettable powder, active ingredient 1000 g/ha, examined at the 21st day from the treatment
Outline: as §3

| SMILES | herbicidal effect (index per standard of Table 21), Setaria viridis (L.) Beauv. [1] | herbicidal effect (index per standard of Table 21), Echinochloa curs-galli (L.) Beauv. Var. crus-galli [2] | herbicidal effect (index per standard of Table 21), Echinochloa curs-galli (L.) Beauv. Var. crus-galli [3] | herbicidal effect (index per standard of Table 21), Setaria viridis (L.) Beauv. [4] | Herbicidal effect index, Monochoria vaginalis (Burm. F.) Presl var. plantaginea (Roxb.) Solms-Laub. [5] | Herbicidal effect index, Echinochloa oryzicola Vasing [6] |
| --- | --- | --- | --- | --- | --- | --- |
| CC1(C)CC(S(=O)(=O)Cc2ccsc2)=NO1 [2-0003] | 5 | 5 | 5 | 4 | 5 | 5 |
| COc1cscc1CS(=O)(=O)C1=NOC(C)(C)C1 [2-0004] | 5 | 5 | 5 | 4 | 5 | 5 |
| CC(=O)c1c(C)sc(C)c1CS(=O)(=O)C1=NOC(C)(C)C1 [2-0008] | 5 | 5 | 5 | 5 | 5 | 5 |
| COC(=O)c1c(Cl)sc(Cl)c1CS(=O)(=O)C1=NOC(C)(C)C1 [2-0011] | 4 | 5 | 5 | 4 | 5 | 5 |
| Cn1ncc(CS(=O)(=O)C2=NOC(C)(C)C2)c1Cl [3-0035] | 5 | 5 | 4 | 4 | 5 | 5 |
| Cc1nn(C)c(Cl)c1CS(=O)(=O)C1=NOC(C)(C)C1 [3-0037] | 5 | 5 | 5 | 4 | 5 | 5 |
| Cn1nc(Cl)c(CS(=O)(=O)C2=NOC(C)(C)C2)c1Cl [3-0038] | 5 | 5 | 5 | 5 | 5 | 5 |
| Cn1nc(C(F)(F)F)c(CS(=O)(=O)C2=NOC(C)(C)C2)c1Cl [3-0039] | 5 | 5 | 5 | 5 | 5 | 5 |
| CCOc1c(CS(=O)(=O)C2=NOC(C)(C)C2)c(C(F)(F)F)nn1C [3-0044] | 5 | 5 | 5 | 4 | 5 | 5 |
| Cn1nc(C(F)(F)F)c(CS(=O)(=O)C2=NOC(C)(C)C2)c1OC1CCCCC1 [3-0049] | 5 | 5 | 4 | 4 | 5 | 5 |
| CCn1nc(C(F)(F)F)c(CS(=O)(=O)C2=NOC(C)(C)C2)c1Cl [3-0073] | 5 | 5 | 5 | 4 | 5 | 5 |
| CCn1nc(Cl)c(CS(=O)(=O)C2=NOC(C)(C)C2)c1C(F)(F)F [3-0074] | 5 | 5 | 5 | 4 | 5 | 5 |
| CCC(C)n1nc(C(F)(F)F)c(CS(=O)(=O)C2=NOC(C)(C)C2)c1Cl (stereo not drawn) [3-0081] | 5 | 5 | 4 | 4 | 5 | 5 |
| CCC(C)n1nc(Cl)c(CS(=O)(=O)C2=NOC(C)(C)C2)c1C(F)(F)F (stereo not drawn) [3-0082] | 5 | 5 | 4 | 4 | 5 | 5 |
| CC(C)Cn1nc(C(F)(F)F)c(CS(=O)(=O)C2=NOC(C)(C)C2)c1Cl [3-0083] | 5 | 5 | 4 | 4 | 5 | 5 |
| CC(C)Cn1nc(Cl)c(CS(=O)(=O)C2=NOC(C)(C)C2)c1C(F)(F)F [3-0084] | 5 | 5 | 4 | 4 | 5 | 5 |
| CCCCn1nc(C(F)(F)F)c(CS(=O)(=O)C2=NOC(C)(C)C2)c1Cl [3-0085] | 5 | 5 | 4 | 4 | 5 | 5 |
| CCCCn1nc(Cl)c(CS(=O)(=O)C2=NOC(C)(C)C2)c1C(F)(F)F [3-0086] | 5 | 5 | 4 | 4 | 5 | 5 |
| CC1(C)CC(S(=O)(=O)Cc2c(Cl)nn(CC(F)F)c2C(F)(F)F)=NO1 [3-0115] | 5 | 5 | 5 | 4 | 5 | 5 |
| COCn1nc(C(F)(F)F)c(CS(=O)(=O)C2=NOC(C)(C)C2)c1Cl [3-0118] | 5 | 5 | 5 | 4 | 5 | 5 |
